Test results taken from patent US20240000740A1, “OMEGA-3 POLYUNSATURATED FATTY ACIDS FOR TREATING / PREVENTING MALE INFERTILITY IN PREPUBERTAL CANDIDATES FOR GONADOTOXIC THERAPIES” (UNIVERSITA' DEGLI STUDI DI PERUGIA, priority 2020, published 2024).
Entries after “also recorded” stand apart in the source; their conditions may differ.

Experiments:
Assay type in all cases: cell-based, pig
[1] = test system: 5-hydroxymethylcytosine (5hmC); assay: Immunofluorescence analysis of 5hmC in Sertoli cells (SCs) of prepubertal pigs; details: 48 hours plus 24 of recovery, compared to untreated SCs
Description: (§1) The animal studies were conducted in accordance with national guidelines (approved Italian animal protection certification A-3143-01) and guidelines of the Committee for the Care and Use of Animals of the University of Perugia. The experimental protocols were approved by the University of Perugia. The newborn prepubertal “Large White” pigs (Farm “Trequattrini”, S. Elena di Marsciano, PG), aged 7-15 days, were used as SC donors. The SCs were isolated in accordance with previously established methods, modified in our laboratory (Luca et al., 2015).
(§2) The SCs were maintained at 37° C. and 5% CO2 in HAMF-12 (Euroclone, MI, Italy) supplemented with 0.166 nM of retinoic acid (Sigma-Aldrich, St. Louis, MO, USA) and 5 mL/500 ml of ITS (Becton Dickinson cat. no. 354352, NJ, USA) in the absence (untreated) or presence of chemotherapeutic drugs for 48 hours plus 24 of recovery at the following concentrations: • Cisplatin 0.33 μM, 1.66 μM and 3.33 μM; • 4-hydroperoxycyclophosphamide (40HP) 50 and 100 μM; • Doxorubicin 0.1 μM, 0.2 μM and 1 μM; • cisplatin 3.33 μM plus EPA 100 μM; • cisplatin 3.33 μM plus 5-aza-2′-deoxy-cytidine (5 AZA) 1 μM.
The untreated SCs and SCs treated with chemotherapeutic drugs (plus EPA or without EPA), were made to grow on round slides pre-treated with gelatine (Sigma-Aldrich). At the end of the treatment, the SCs were fixed for 30 min in 4% paraformaldehyde in phosphate buffer (PBS). Prior to immunolabelling, the cells were subjected to permeabilization (PBS, 0.2% Triton X) for 5 min at room temperature, blocked in 0.5% bovine serum albumin (BSA; Sigma-Aldrich, St. Louis, MO) in PBS for 10 min, and then exposed to the primary anti-5hmC antibody (Santa Cruz Biotechnology, 1:100 in PBS) overnight at 4° C. The cells were washed three times in PBS for 5 min and then exposed to the secondary Alexa-488 labelled antibody (1:500 in PBS). The cells were counterstained with 4′,6-diamidino-2-phenylindole (DAPI) for 1 min after treatment with RNase (10 mg/mL per 10 min.). The negative control for the immunolabelling consisted in skipping the labelling with the primary antibody and passing directly to the secondary antibody. The slides were then mounted with ProLong® Gold Antifade (ThermoFisher) and the images were acquired with an Olympus BX-41 equipped with Cell-F image processing software (Olympus).

GDNF [2] = assay: Real-time PCR analysis of GDNF gene expression in SCs of prepubertal pigs; details: for gene expression of GDNF, real-time PCR: 48 hours plus 24 of recovery, compared to untreated SCs
Description: as §1, §2
Total RNA was isolated from the monolayers of untreated SCs and SCs treated with chemotherapeutic drugs (plus EPA or without EPA) by means of an RNA purification kit (Versagene RNA Cell Kit, Gentra Systems, Minneapolis, MN) and quantified by reading the optical density at 260 nm. Subsequently, 1 μg of total RNA was subjected to RT in a final volume of 20 μl by means of the Maxima First Strand cDNA Synthesis kit (Thermo Scientific, MA, USA). Real-time PCR was performed using 16 ng of cDNA, prepared from the RT reaction, and SYBR Green (Stratagene, Amsterdam, Netherlands). Real-time PCR was performed with an Mx3000P cycler (Stratagene) using FAM for detection and ROX as the reference dye. The level of mRNA for each sample was normalised with respect to the mRNA of β-actin and expressed as a change compared to the level of the untreated control cells.

GDNF [3] = assay: Western blotting and densitometric analysis of GDNF protein expression in SCs of prepubertal pigs; details: 48 hours plus 24 of recovery, compared to untreated SCs
Description: as §1, §2
The SCs were maintained at 37° C. and 5% CO2 in HAMF-12 (Euroclone, MI, Italia) supplemented with 0.166 nM of retinoic acid (Sigma-Aldrich, St. Louis, MO, USA) and 5 mL/500 ml of ITS (Becton Dickinson cat. no. 354352, NJ, USA) in the absence (untreated) or presence of cisplatin 0.5 and 1 μg/ml for 48 hours plus 24 of recovery plus 100 μM EPA.
The SCs were cultured at 37° C. and 5% CO2 in HAMF-12 (Euroclone, MI, Italy) supplemented with 0.166 nM of retinoic acid (Sigma-Aldrich, St. Louis, MO, USA) and 5 mL/500 ml of ITS (Becton Dickinson cat. no. 354352, NJ, USA) in the absence (untreated) or presence of cisplatin 0.5 and 1 μg/ml for 48 hours plus 24 of recovery and with the addition of 100 μM EPA. […] The images were acquired by means of the VersaDoc Imaging System (Bio-Rad Hercules, CA, USA), and the respective signals were quantified using Quantity One software (Bio-Rad) 2.8.

[4] = SCs treated with 4-hydroperoxycyclophosphamide 50 and 100 μM
[5] = SCs treated with cisplatin 0.33, 1.66 and 3.33 μM
[6] = SCs treated with doxorubicin 0.1, 0.2 and 1 μM

Question: For O=P1(N(CCCl)CCCl)NC(OO)CCO1 (stereo not drawn) [4-hydroperoxycyclophosphamide], which “5-hydroxymethylcytosine (5hmC), immunofluorescence analysis” value (shortened to “5-hydroxymethylcytosine (5hmC)”) [1, 4] is on record?
Answer: Its value is “significant reduction”.

Question: What about the “5-hydroxymethylcytosine (5hmC)” value ([1]; SCs treated with 4-hydroperoxycyclophosphamide 50 and 100 μM, listed as 4OHP) of the same molecule?
Answer: Its value is “progressive reduction”.

Question: What about the “gene expression of GDNF, real-time PCR” value (GDNF [2]; [4]) of the same molecule?
Answer: Its value is “significant reduction”.

Question: And the “protein expression of GDNF, western blotting” value (from here on “protein expression of GDNF”) (GDNF [3]; [4])?
Answer: The value was “significant reduction”.

Question: How did the “recovery in the expression of GDNF” value (GDNF [2]; SCs treated with cisplatin 3.33 μM plus 5 AZA 1 μM, compared with EPA treatment) turn out when Nc1ncn([C@H]2C[C@H](O)[C@@H](CO)O2)c(=O)n1 [AZA, 5-aza-2′-deoxycytidine] was run?
Answer: Its value is “comparable to the one induced by treatment with the fatty acid EPA; also recorded: recovery comparable to that induced by treatment with the fatty acid”.

Question: How did the “5-hydroxymethylcytosine (5hmC)” value [1, 5] turn out when N.N.[Cl][Pt][Cl] [Cisplatin] was run?
Answer: Its value is “significant reduction”.

Question: And the “5-hydroxymethylcytosine (5hmC)” value ([1]; SCs treated with cisplatin 0.33, 1.66 and 3.33 μM, listed as cisplatin)?
Answer: The value was “progressive reduction”.

Question: And the “gene expression of GDNF, real-time PCR” value (GDNF [2]; [5])?
Answer: Its value is “significant reduction”.

Question: And the “protein expression of GDNF” value (GDNF [3]; [5])?
Answer: Its value is “significant reduction”.

Question: How did the “5-hydroxymethylcytosine (5hmC)” value [1, 6] turn out when COc1cccc2c1C(=O)c1c(O)c3c(c(O)c1C2=O)C[C@@](O)(C(=O)CO)C[C@@H]3O[C@H]1C[C@H](N)[C@H](O)[C@H](C)O1 [doxorubicin] was run?
Answer: The value was “progressive reduction; also recorded: significant reduction”.

Question: What about the “gene expression of GDNF, real-time PCR” value (GDNF [2]; [6]) of the same molecule?
Answer: The value was “significant reduction”.

Question: And the “protein expression of GDNF” value (GDNF [3]; [6])?
Answer: Its value is “significant reduction”.
